In PubChem BioAssay (NCI):
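At the GI50, growth is halved. TGI: concentration producing complete growth inhibition.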

How the values were obtained:
Assay in all cases: NCI-60 cell line screen, 384-well format
HCT-116 colon = tested on: HCT-116 colon
A498 renal = tested on: A498 renal
K-562 leukemia = tested on: K-562 leukemia
UO-31 renal = tested on: UO-31 renal
UACC-257 melanoma = tested on: UACC-257 melanoma
HS 578T breast = tested on: HS 578T breast
SK-MEL-2 melanoma = tested on: SK-MEL-2 melanoma
786-0 renal = tested on: 786-0 renal
A549 NSCLC = tested on: A549 NSCLC
UACC-62 melanoma = tested on: UACC-62 melanoma
NCI-H522 lung = tested on: NCI-H522 lung
HT29 colon = tested on: HT29 colon
MOLT-4 leukemia = tested on: MOLT-4 leukemia
LOX IMVI melanoma = tested on: LOX IMVI melanoma
IGROV1 ovarian = tested on: IGROV1 ovarian
SW-620 colon = tested on: SW-620 colon
T-47D breast = tested on: T-47D breast
BT-549 breast = tested on: BT-549 breast
MCF7 breast = tested on: MCF7 breast
SF-539 CNS = tested on: SF-539 CNS
HCT-15 colon = tested on: HCT-15 colon
CAKI-1 renal = tested on: CAKI-1 renal
HOP-92 NSCLC = tested on: HOP-92 NSCLC
ACHN renal = tested on: ACHN renal
RPMI-8226 leukemia = tested on: RPMI-8226 leukemia
HCC-2998 colon = tested on: HCC-2998 colon
RXF 393 renal = tested on: RXF 393 renal
OVCAR-5 ovarian = tested on: OVCAR-5 ovarian
OVCAR-4 ovarian = tested on: OVCAR-4 ovarian
CCRF-CEM leukemia = tested on: CCRF-CEM leukemia
PC-3 prostate = tested on: PC-3 prostate
SF-268 CNS = tested on: SF-268 CNS
MDA-MB-231 breast = tested on: MDA-MB-231 breast
NCI-H460 NSCLC = tested on: NCI-H460 NSCLC
TK-10 renal = tested on: TK-10 renal
OVCAR-3 ovarian = tested on: OVCAR-3 ovarian
HL-60(TB) leukemia = tested on: HL-60(TB) leukemia
NCI-H322M lung = tested on: NCI-H322M lung
SF-295 CNS = tested on: SF-295 CNS
MDA-MB-468 breast = tested on: MDA-MB-468 breast
NCI-H226 lung = tested on: NCI-H226 lung
SK-OV-3 ovarian = tested on: SK-OV-3 ovarian
MDA-MB-435 melanoma = tested on: MDA-MB-435 melanoma
U251 glioblastoma = tested on: U251 glioblastoma
SR leukemia = tested on: SR leukemia
NCI/ADR-RES ovarian = tested on: NCI/ADR-RES ovarian
SN12C renal = tested on: SN12C renal
COLO 205 colon = tested on: COLO 205 colon
DU-145 prostate = tested on: DU-145 prostate
NCI-H23 lung = tested on: NCI-H23 lung
HOP-62 NSCLC = tested on: HOP-62 NSCLC
KM12 colon = tested on: KM12 colon
SK-MEL-5 melanoma = tested on: SK-MEL-5 melanoma
SNB-19 CNS = tested on: SNB-19 CNS
SK-MEL-28 melanoma = tested on: SK-MEL-28 melanoma
M14 melanoma = tested on: M14 melanoma
EKVX NSCLC = tested on: EKVX NSCLC
SNB-75 CNS = tested on: SNB-75 CNS
MALME-3M melanoma = tested on: MALME-3M melanoma

NC1(Cc2ccc(Cl)cc2)CCN(c2ncnc3[nH]ccc23)CC1
GI50 (HCT-116 colon): 3.67 µM | TGI (HCT-116 colon): 13.4 µM | GI50 (A498 renal): 3.16 µM | TGI (A498 renal): 14.8 µM | GI50 (K-562 leukemia): 3.4 µM | TGI (K-562 leukemia): 15.7 µM | GI50 (UO-31 renal): 4.28 µM | TGI (UO-31 renal): 17.6 µM | GI50 (UACC-257 melanoma): 1.93 µM | TGI (UACC-257 melanoma): 3.96 µM | GI50 (HS 578T breast): 1.21 µM | TGI (HS 578T breast): 6.14 µM | GI50 (SK-MEL-2 melanoma): 7.52 µM | TGI (SK-MEL-2 melanoma): 19 µM | GI50 ([…]-0 renal): 2.33 µM | TGI (786-0 renal): 12.1 µM | GI50 (A549 NSCLC): 4.27 µM | TGI (A549 NSCLC): 15.5 µM | GI50 (UACC-62 melanoma): 4.76 µM | TGI (UACC-62 melanoma): 16.4 µM | GI50 (NCI-H522 lung): 5.41 µM | TGI (NCI-H522 lung): 19.5 µM | GI50 (HT29 colon): 2.63 µM | TGI (HT29 colon): 12.3 µM | GI50 (MOLT-4 leukemia): 1.09 µM | TGI (MOLT-4 leukemia): 2.6 µM | GI50 (LOX IMVI melanoma): 4.07 µM | TGI (LOX IMVI melanoma): 13.7 µM | GI50 (IGROV1 ovarian): 1.53 µM | TGI (IGROV1 ovarian): 9.67 µM | GI50 (SW-620 colon): 4.6 µM | TGI (SW-620 colon): 16.2 µM | GI50 (T-47D breast): 2.35 µM | TGI (T-47D breast): 12.7 µM | GI50 (BT-549 breast): 1.63 µM | TGI (BT-549 breast): 5.8 µM | GI50 (MCF7 breast): 2.55 µM | TGI (MCF7 breast): 12.7 µM | GI50 (SF-539 CNS): 1.46 µM | TGI (SF-539 CNS): 7.16 µM | GI50 (HCT-15 colon): 3.93 µM | TGI (HCT-15 colon): 17.8 µM | GI50 (CAKI-1 renal): 3.96 µM | TGI (CAKI-1 renal): 16 µM | GI50 (HOP-92 NSCLC): 2.2 µM | TGI (HOP-92 NSCLC): 9.62 µM | GI50 (ACHN renal): 3.89 µM | TGI (ACHN renal): 15.8 µM | GI50 (RPMI-8226 leukemia): 1.36 µM | TGI (RPMI-8226 leukemia): 4.48 µM | GI50 (HCC-2998 colon): 1.96 µM | TGI (HCC-2998 colon): 5.94 µM | GI50 (RXF 393 renal): 2.14 µM | TGI (RXF 393 renal): 7.4 µM | GI50 (OVCAR-5 ovarian): 6.84 µM | TGI (OVCAR-5 ovarian): 26.7 µM | GI50 (OVCAR-4 ovarian): 16.4 µM | TGI (OVCAR-4 ovarian): 43.9 µM | GI50 (CCRF-CEM leukemia): 2.31 µM | TGI (CCRF-CEM leukemia): 10.8 µM | GI50 (PC-3 prostate): 3.11 µM | TGI (PC-3 prostate): 15.8 µM | GI50 (SF-268 CNS): 5.54 µM | TGI (SF-268 CNS): 18.2 µM | GI50 (MDA-MB-231 breast): 4.76 µM | TGI (MDA-MB-231 breast): 16.4 µM | GI50 (NCI-H460 NSCLC): 1.76 µM | TGI (NCI-H460 NSCLC): 9.36 µM | GI50 (TK-10 renal): 3.15 µM | TGI (TK-10 renal): 13.3 µM | GI50 (OVCAR-3 ovarian): 9.12 µM | TGI (OVCAR-3 ovarian): 21.4 µM | GI50 (HL-60(TB) leukemia): 3.01 µM | TGI (HL-60(TB) leukemia): 9.25 µM | GI50 (NCI-H322M lung): 4.85 µM | TGI (NCI-H322M lung): 17.6 µM | GI50 (SF-295 CNS): 2.74 µM | TGI (SF-295 CNS): 14.8 µM | GI50 (MDA-MB-468 breast): 1.61 µM | TGI (MDA-MB-468 breast): 6.55 µM | GI50 (NCI-H226 lung): 5.53 µM | TGI (NCI-H226 lung): 18.1 µM | GI50 (SK-OV-3 ovarian): 3.84 µM | TGI (SK-OV-3 ovarian): 17.3 µM | GI50 (MDA-MB-435 melanoma): 2.41 µM | TGI (MDA-MB-435 melanoma): 6.35 µM | GI50 (U251 glioblastoma): 4.4 µM | TGI (U251 glioblastoma): 15.7 µM | GI50 (SR leukemia): 2.07 µM | TGI (SR leukemia): 4 µM | GI50 (NCI/ADR-RES ovarian): 8.66 µM | TGI (NCI/ADR-RES ovarian): 21.1 µM | GI50 (SN12C renal): 3.46 µM | TGI (SN12C renal): 14.9 µM | GI50 (COLO 205 colon): 3.34 µM | TGI (COLO 205 colon): 12.3 µM | GI50 (DU-145 prostate): 8.33 µM | TGI (DU-145 prostate): 23 µM | GI50 (NCI-H23 lung): 4 µM | TGI (NCI-H23 lung): 16 µM | GI50 (HOP-62 NSCLC): 4.77 µM | TGI (HOP-62 NSCLC): 17.2 µM | GI50 (KM12 colon): 2.25 µM | TGI (KM12 colon): 11 µM | GI50 (SK-MEL-5 melanoma): 3.17 µM | TGI (SK-MEL-5 melanoma): 12.8 µM | GI50 (SNB-19 CNS): 3.28 µM | TGI (SNB-19 CNS): 13.5 µM | GI50 (SK-MEL-28 melanoma): 2.26 µM | TGI (SK-MEL-28 melanoma): 5.94 µM | GI50 (M14 melanoma): 4.51 µM | TGI (M14 melanoma): 16.1 µM | GI50 (EKVX NSCLC): 4.51 µM | TGI (EKVX NSCLC): 16.5 µM | GI50 (SNB-75 CNS): 1.54 µM | TGI (SNB-75 CNS): 7.76 µM | GI50 (MALME-3M melanoma): 2.25 µM | TGI (MALME-3M melanoma): 5.8 µM
